Assay results from patent US20220259202A1, “1-(4-(AMINOMETHYL)BENZYL)-2-BUTYL-2H-PYRAZOLO[3,4-C]QUINOLIN-4-AMINE DERIVATIVES AND RELATED COMPOUNDS AS TOLL-LIKE RECEPTOR (TLR) 7/8 AGONISTS, AS WELL AS ANTIBODY DRUG CONJUGATES THEREOF FOR USE IN CANCER THERAPY AND DIAGNOSIS” (SUTRO BIOPHARMA, INC., priority 2019, published 2022).

Key:
Assay in all cases: HEK293 SEAP reporter assay, other TLRs (Biological Example 3)
Format in all cases: cell-based
Settings in all cases: 16 hrs, up to 1 μM
human TLR5 = target: T1, human TLR5 (Homo sapiens, UniProt O60602)
T1 construct: host or cells: HEK293
T1 sequence (O60602 21-858): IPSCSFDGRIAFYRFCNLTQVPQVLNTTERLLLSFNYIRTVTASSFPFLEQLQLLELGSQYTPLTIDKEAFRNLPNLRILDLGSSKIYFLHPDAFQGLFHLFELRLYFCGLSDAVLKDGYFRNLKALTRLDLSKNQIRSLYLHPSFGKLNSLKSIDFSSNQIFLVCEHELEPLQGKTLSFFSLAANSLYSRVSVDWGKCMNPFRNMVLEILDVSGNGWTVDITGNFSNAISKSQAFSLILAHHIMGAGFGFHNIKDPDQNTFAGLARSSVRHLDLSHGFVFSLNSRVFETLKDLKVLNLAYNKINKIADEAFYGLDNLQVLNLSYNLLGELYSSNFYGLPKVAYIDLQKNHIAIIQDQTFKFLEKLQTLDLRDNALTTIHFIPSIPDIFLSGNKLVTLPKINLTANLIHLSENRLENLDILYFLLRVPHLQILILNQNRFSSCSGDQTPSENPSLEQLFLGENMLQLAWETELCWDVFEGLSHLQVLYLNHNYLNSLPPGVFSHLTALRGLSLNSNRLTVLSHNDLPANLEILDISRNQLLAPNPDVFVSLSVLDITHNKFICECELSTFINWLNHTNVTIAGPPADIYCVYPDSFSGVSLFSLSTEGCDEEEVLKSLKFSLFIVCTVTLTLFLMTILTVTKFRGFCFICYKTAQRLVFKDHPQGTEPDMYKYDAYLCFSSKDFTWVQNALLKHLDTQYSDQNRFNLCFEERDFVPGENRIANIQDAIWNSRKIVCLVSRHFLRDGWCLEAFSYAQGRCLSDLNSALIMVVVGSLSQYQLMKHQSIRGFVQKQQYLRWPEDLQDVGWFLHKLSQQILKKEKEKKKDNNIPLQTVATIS
Excerpt: (§1) In this example, the activity of the Compound 1 to stimulate different human and mouse TLR pathways was investigated on HEK293 cells transfected with inducible SEAP (secreted embryonic alkaline phosphatase) reporter genes and also expressing different human TLRs (TLR2, TLR3, TLR4, TLR5, TLR7, TLR8, TLRS) or mouse TLRs (TLR2, TLR3, TLR4, TLR5, TLR7, TLR8, TLR13). Compound A
(§2) HEK293 reporter cell lines were purchased from Invivogen and cell lines were maintained in manufacture recommended culture medium with required supplemental antibiotics. On the day of assay, the cells were harvested with Accutase and counted by the Vi-CELL Cell Viability Analyzers. Cells were re-suspended in HEK blue detection medium and a total of 10000 cells were seeded in each well of a 384-well flat bottom plate. […] Assay plates were cultured at 37° C. in a CO2 incubator for 16 hrs. HEK-Blue™ Detection medium changes to a purple/blue color in the presence of secreted SEAP, which can be detected by spectrophotometry at 620-655 nm. Data was fitted with non-linear regression analysis, using a log(inhibitor) vs. response-variable slope, 3-parameter fit with GraphPad Prism.

mouse TLR3 = target: T2, mouse TLR3 (Mus musculus, UniProt Q99MB1)
T2 construct: host or cells: HEK293
T2 sequence (Q99MB1 26-905): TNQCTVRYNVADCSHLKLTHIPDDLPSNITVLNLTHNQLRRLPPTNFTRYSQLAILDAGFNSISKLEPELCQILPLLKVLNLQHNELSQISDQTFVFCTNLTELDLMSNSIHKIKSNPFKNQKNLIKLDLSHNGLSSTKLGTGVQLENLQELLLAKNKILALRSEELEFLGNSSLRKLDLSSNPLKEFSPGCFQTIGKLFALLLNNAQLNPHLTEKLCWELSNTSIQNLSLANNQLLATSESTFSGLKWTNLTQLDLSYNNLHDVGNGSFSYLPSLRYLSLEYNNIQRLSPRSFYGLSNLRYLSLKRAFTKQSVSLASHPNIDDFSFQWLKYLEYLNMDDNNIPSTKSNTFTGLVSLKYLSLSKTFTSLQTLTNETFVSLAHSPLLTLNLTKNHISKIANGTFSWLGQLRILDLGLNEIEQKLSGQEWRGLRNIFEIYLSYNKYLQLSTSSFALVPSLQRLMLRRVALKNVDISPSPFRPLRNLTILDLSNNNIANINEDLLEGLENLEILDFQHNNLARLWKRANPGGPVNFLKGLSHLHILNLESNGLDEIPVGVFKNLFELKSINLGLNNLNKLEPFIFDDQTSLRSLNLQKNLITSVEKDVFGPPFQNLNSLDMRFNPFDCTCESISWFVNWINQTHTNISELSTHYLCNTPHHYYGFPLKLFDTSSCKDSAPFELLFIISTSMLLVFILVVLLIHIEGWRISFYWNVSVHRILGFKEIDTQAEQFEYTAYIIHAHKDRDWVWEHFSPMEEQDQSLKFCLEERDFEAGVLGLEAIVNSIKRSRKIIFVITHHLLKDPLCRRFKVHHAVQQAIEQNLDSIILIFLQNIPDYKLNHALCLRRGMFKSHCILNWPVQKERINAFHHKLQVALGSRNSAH
Excerpt: as §1, §2

mouse TLR4 = target: T3, mouse TLR4 (Mus musculus, UniProt Q9JHF9+Q9QUK6)
T3 construct: host or cells: HEK293
T3 sequence (Q9QUK6 26-835): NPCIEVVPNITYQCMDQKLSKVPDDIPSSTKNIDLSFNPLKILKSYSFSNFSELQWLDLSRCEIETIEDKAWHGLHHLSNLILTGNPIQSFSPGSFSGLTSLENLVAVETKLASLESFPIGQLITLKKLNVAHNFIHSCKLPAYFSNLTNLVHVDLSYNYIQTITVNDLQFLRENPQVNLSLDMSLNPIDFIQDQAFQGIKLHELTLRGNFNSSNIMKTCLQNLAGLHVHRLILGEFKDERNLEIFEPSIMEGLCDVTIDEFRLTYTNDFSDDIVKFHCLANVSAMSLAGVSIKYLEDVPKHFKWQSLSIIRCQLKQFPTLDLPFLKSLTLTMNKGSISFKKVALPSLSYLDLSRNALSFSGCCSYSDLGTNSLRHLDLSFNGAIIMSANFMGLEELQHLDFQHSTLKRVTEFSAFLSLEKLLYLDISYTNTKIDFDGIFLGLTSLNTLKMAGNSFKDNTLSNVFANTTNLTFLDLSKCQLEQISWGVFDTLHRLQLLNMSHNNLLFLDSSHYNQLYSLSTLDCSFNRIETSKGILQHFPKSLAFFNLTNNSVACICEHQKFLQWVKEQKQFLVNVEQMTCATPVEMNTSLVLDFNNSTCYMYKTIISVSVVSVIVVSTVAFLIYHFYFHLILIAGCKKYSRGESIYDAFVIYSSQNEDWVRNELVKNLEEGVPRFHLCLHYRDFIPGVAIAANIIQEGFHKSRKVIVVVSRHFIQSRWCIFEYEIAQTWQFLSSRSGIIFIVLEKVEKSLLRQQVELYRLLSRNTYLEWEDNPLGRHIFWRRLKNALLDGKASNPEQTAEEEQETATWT
T3 sequence (Q9JHF9 19-160): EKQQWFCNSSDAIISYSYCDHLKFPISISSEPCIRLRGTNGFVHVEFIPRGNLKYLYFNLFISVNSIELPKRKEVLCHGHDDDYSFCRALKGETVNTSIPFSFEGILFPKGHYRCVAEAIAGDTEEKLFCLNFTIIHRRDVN
Excerpt: as §1, §2

mouse TLR5 = target: T4, mouse TLR5 (Mus musculus, UniProt Q9JLF7)
T4 construct: host or cells: HEK293
T4 sequence (Q9JLF7 27-859): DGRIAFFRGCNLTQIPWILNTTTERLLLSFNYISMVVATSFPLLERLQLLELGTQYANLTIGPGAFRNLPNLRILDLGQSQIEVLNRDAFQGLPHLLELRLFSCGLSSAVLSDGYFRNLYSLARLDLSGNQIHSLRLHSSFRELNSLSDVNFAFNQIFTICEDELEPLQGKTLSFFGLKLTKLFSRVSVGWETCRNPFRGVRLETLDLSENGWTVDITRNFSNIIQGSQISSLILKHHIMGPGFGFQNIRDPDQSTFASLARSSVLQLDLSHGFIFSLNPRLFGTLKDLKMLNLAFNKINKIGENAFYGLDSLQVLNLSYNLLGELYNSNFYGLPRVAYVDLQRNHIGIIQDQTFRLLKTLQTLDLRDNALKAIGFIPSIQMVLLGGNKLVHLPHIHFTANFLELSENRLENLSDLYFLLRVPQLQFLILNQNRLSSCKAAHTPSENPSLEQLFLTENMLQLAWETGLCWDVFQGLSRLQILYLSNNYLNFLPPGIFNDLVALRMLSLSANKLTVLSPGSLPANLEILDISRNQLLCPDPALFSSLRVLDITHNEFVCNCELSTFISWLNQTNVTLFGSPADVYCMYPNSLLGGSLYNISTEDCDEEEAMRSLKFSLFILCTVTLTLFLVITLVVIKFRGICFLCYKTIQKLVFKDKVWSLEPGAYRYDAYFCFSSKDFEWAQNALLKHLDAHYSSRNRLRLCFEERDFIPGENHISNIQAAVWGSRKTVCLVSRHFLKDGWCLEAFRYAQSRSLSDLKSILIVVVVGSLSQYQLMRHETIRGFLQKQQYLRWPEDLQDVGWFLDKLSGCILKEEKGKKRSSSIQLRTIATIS
Excerpt: as §1, §2

Measured: EC50

CCCCn1nc2c(N)nc3ccccc3c2c1Cc1ccc(CN)cc1 [Compound 1, 1-(4-(aminomethyl)benzyl)-2-butyl-2H-pyrazolo[3,4-c]quinolin-4-amine]
> 1000 nM: all assays above

CCCCc1nc2c(N)nc3ccccc3c2n1Cc1ccc(CN)cc1 [Compound A, reference compound]
> 1000 nM: all assays above
